Source: US7217735B1, “Methods and compositions for enhancing delivery of therapeutic agents to tissues” (priority 1999, dated 2007)
Read-outs that look alike come from different tables or passages of the source. Marks after values point to notes of the source that are not given here.

Key:
FaDu xenograft tumors [1] = test: Paclitaxel efflux from tumor histocultures; format: in vitro ADME, human
[2] = tested on: Pgp-positive patient tumors; test: Paclitaxel accumulation by Pgp status; format: in vitro ADME, human; settings: 12,000 nM
Experimental: The expression of Pgp was measured by immunohistochemical methods, using procedures described previously (Toth K et al. (1994) Am J Pathol 144:227–236). Briefly, tissue sections were de-waxed and rehydrated sequentially in xylene, ethanol and water. Tissue sections were boiled in a 0.1 M citrate buffer, pH 6.0, in a microwave oven, then cooled and washed in phosphate-buffered saline (PBS). The tissue sections were incubated with Dako blocking solution for 10 min and subsequently with the following antibody solutions for 2 hr: a mouse anti-human Pgp antibody (JSB-1, 1:200 dilution) and a rabbit antihuman Pgp polyclonal antibody (ab-1, 1:100 dilution). […] The incubation was carried out in a humidified chamber at room temperature. The antibodies were diluted in PBS containing 5 mg/ml bovine serum albumin. For negative controls, we used mouse IgG as the primary antibody. […] After washing with PBS, the tissue sections were covered with the linker solution, and then with peroxidase-conjugated streptavidin solution. After washing twice with PBS, tissue sections were incubated for 5 to 7 minutes with diaminobenzidine and counterstained with hematoxylin.
The statistical significance of the differences between groups was analyzed by the two-tailed unpaired Student's t-test.

[3] = Effect of pretreatment on paclitaxel accumulation in tumors, in vivo infusion; parameters: species or system Copenhagen rat; settings: male, Copenhagen, rat; for Kp: tumor and plasma, intravenous, read-out: Tumor-to-plasma conc. ratio at end of Tx
Source text: (§1) Experiments were initiated when the tumor was between 0.3 to 0.5 g in size.
(§2) The jugular vein and carotid artery of tumor-bearing rats were catheterized, under light ether anesthesia, with polyethylene tubing (PE-50, Becton Dickinson Co., Sparks, Md.) for drug administration and for blood sampling, respectively. Each catheter was exteriorized to the dorsal side of the neck and attached to a second polyethylene tubing (PE-50), respectively. The catheters and tubings were covered with a metal coil tubing. […] Blood samples (0.12 or 0.22 ml) were obtained at predetermined times. Plasma fraction was obtained by centrifugation at 2,000 g for 3 min, and stored at −70° C. for HPLC analysis. At the end of the experiment, tumors were harvested. One quarter of a tumor was fixed in 10% neutralized formalin solution and processed for tissue morphology evaluation. Tumor cell density and the fraction of apoptotic cells were determined by counting the number of tumor cells and apoptotic cells in nonnecrotic regions at 400× magnification (5 microscopic fields/tumor). The remainder of the tumor was stored at […] until HPLC analysis for drug concentration.
(§3) Preweighed tumors were homogenized, mixed with the internal standard, 100:1 cephalomanine (10:g/ml in methanol). The HPLC stationary phase consisted of a cleaning column (NovaPak C8, 75×3.9 mm ID, 4:m particle size, Waters Associates, Milford, Mass.) and an analytical column (Bakerbond Octadecyl, 250×4.6 mm ID, 5:m particle size, J. T. Baker, Phillipsburg, N.J.). Samples were injected onto the clean-up column and eluted with the clean-up mobile phase (37.5% acetonitrile in Water) at 1 ml/min.

MAT-LyLu prostate tumor = test: as above; parameters: species or system Copenhagen rat
Source text: as §1, §2, §3

FaDu tumor histocultures = settings: for time at which even distribution in tumor was attained: with pretreatment
Source text: The histocultures were transferred to a collagen gel presoaked with drug-containing medium for at least 8 hr. The latter was to ascertain that the drug concentration in the medium inside the collagen gel was at equilibrium with the surrounding medium, in order to eliminate the delay in drug transport from medium through the collage gel. Drug treatment was terminated by transferring histocultures to a collagen gel presoaked with drug-free medium. Histocultures were transferred using a pair of hooked forceps and care was exercised to avoid squeezing or pinching.
The total drug concentration in tumor histocultures was measured as described in Example 1. […] Thirty to 35 tumor histocultures were used for each time point.
Two studies were performed.
One schedule used 50% of the total C×T to induce apoptosis, whereas the other schedule used continuous treatment. […] The fraction of apoptotic cells and cell density were determined by counting the number of total and apoptotic tumor cells in 400× microscopic fields (3 fields per tumor).

FaDu xenograft tumors [4] = test: Paclitaxel uptake in tumor histocultures
Source text: FaDu cells were obtained from American Type Culture Collection (Rockville, Mass.). MCF7 cells were obtained from Dr. Kenneth Cowan at the National Cancer Institute. Cells were harvested from subconfluent cultures using trypsin and resuspended in fresh medium before plating. Cells with greater than 90% viability, as determined by trypan blue exclusion, were used for tumor implantation. Cells were centrifuged and resuspended in Matrigel (1:1 v/v). […] The tumor establishment was achieved by subcutaneously injecting 10^6 cells (0.1–0.2 ml) with a 18 gauge needle at left and right sides of the upper back. The tumor was removed when it reached a size of 0.5 to 1 g and used for experiments.
(§4) The specimens were washed with culture medium for three times and dissected into about 1 mm^3 fragments under sterile conditions. The culture medium consisted of a 1:1 mixture of MEM/DMEM for patient tumors, MEM for FaDu xenografts, and RPMI1640 for PC3 xenografts, supplemented with 9% heat-inactivated FBS, 2 mM glutamine, 0.1 mM non-essential amino acids (only for MEM/DMEM), 90:g/ml gentamicin and 90:g/ml cefotaxime sodium. Five histoculture fragments were placed on a 1 cm^2 piece of presoaked collagen gel and incubated with 4 ml culture medium in 6-well plates. After 2 to 4 days, tumor histocultures were used to study the kinetics of drug penetration.
(§5) At predetermined times, 100 μl of medium was taken from each well and the histocultures were removed from the plates. The histocultures were blot-dried on a filter paper and their weights were measured. One hundred 1 of medium or tumor samples were mixed with 0.5 ml of Solvable tissue/gel solubilizer, incubated at 50° C. in an oven overnight, and analyzed for total radioactivity using liquid scintillation counting. […] Drug concentration in tissue was calculated as (drug amount) divided by (tissue weight) and was expressed in molar terms.
For the FaDu xenograft tumor, specimens from individual animals were sufficiently large that each tumor was used for studying uptake and efflux at all four drug concentrations.

[5] = tested on: patient and xenograft tumors; test: Paclitaxel efflux from tumor histocultures, all three tumor types
Experimental: as §4, §5
The study design of experiments using patient tumors was dictated by the size of the specimens. […]

[6] = initial Cmedium 120 nM for 24 hr, at 24 hr post-treatment
[7] = initial Cmedium 120 nM for 24 hr, at 72 hr post-treatment
[8] = initial Cmedium 1,200 nM for 24 hr, at 24 hr post-treatment
[9] = initial Cmedium 1,200 nM for 24 hr, at 72 hr post-treatment
[10] = Group 1: 5 mg/kg/hr x 1 hr, then 0.83 x 6 hr at 24 hr, total 10 mg/kg
[11] = Group 2A: 5 mg/kg/hr x 1 hr at 0 hr, total 5 mg/kg, at 1 hr
[12] = Group 2B: 5 mg/kg/hr x 1 hr at 0 hr, total 5 mg/kg, at 24 hr
[13] = Group 3: 0.83 mg/kg/hr x 6 hr at 0 hr, total 5 mg/kg
[14] = Group 4: 5 mg/kg/hr x 1 hr at 0 hr + 0.83 x 6 hr at 1.2 hr, total 10 mg/kg
[15] = Group 5: 0.83 mg/kg/hr x 12 hr, total 10 mg/kg

SMILES: CC(=O)O[C@H]1C(=O)[C@@]2(C)[C@H]([C@H](OC(=O)c3ccccc3)[C@]3(O)C[C@H](OC(=O)[C@H](O)[C@@H](NC(=O)c4ccccc4)c4ccccc4)C(C)=C1C3(C)C)[C@]1(OC(C)=O)CO[C@@H]1C[C@@H]2O [paclitaxel]
- Cmedium (FaDu xenograft tumors [1]; [6]): 0.989 ± 0.228 nM
- Ctumor (FaDu xenograft tumors [1]; [6]): 3.88 ± :M
- Cmedium (FaDu xenograft tumors [1]; [7]): 1.42 ± 0.18 nM
- Ctumor (FaDu xenograft tumors [1]; [7]): 3.84 ± 1.04 :M
- Cmedium (FaDu xenograft tumors [1]; [8]): 12.2 ± 1.3 nM
- Ctumor (FaDu xenograft tumors [1]; [8]): 23.2 ± :M
- Cmedium (FaDu xenograft tumors [1]; [9]): 18.9 ± 5.5 nM
- Ctumor (FaDu xenograft tumors [1]; [9]): 17.7 ± 3.7 :M
- lower accumulation in Pgp-positive vs Pgp-negative patient tumors (average difference) [2]: < 25%
- half-life ([3]; plasma, rats, intravenous infusion, read-out: major half-life (converted)): 1.1 h
- Kp ([3]; 5 mg/kg, Group 2A: 5 mg/kg/hr x 1 hr at 0 hr, total 5 mg/kg): 0.46 ± 0.09
- Kp ([3]; 5 mg/kg, Group 3: 0.83 mg/kg/hr x 6 hr at 0 hr, total 5 mg/kg): 1.73 ± 0.18
- Kp ([3]; 10 mg/kg, Group 1: 5 mg/kg/hr x 1 hr, then 0.83 x 6 hr at 24 hr, total 10 mg/kg): 2.8 ± 0.28
- Kp ([3]; 10 mg/kg, Group 4: 5 mg/kg/hr x 1 hr at 0 hr + 0.83 x 6 hr at 1.2 hr, total 10 mg/kg): 1.2 ± 0.3
- Kp ([3]; 10 mg/kg, Group 5: 0.83 mg/kg/hr x 12 hr, total 10 mg/kg): 1.98 ± 0.23
- Apoptotic fraction (MAT-LyLu prostate tumor; [10]): 14.5 ± 2.5^b %
- Cell density (MAT-LyLu prostate tumor; [10]): 83 ± 4.69^b
- Plasma conc. at end of Tx (MAT-LyLu prostate tumor; [10]): 1.42 ± 0.11 :g/ml
- Tumor conc. at specified time (MAT-LyLu prostate tumor; Group 1: 5 mg/kg/hr x 1 hr, then 0.83 x 6 hr at 24 hr, total 10 mg/kg, at 30 hr): 3.94 ± 0.35 :g/g
- higher tumor concentration in Group 1 than sum of Group 2 at 24 hr and Group 3 at 6 hr (MAT-LyLu prostate tumor; Group 1 at 30 hr): 50%
- Plasma conc. at end of Tx (MAT-LyLu prostate tumor; Group 2A: 5 mg/kg/hr x 1 hr at 0 hr, total 5 mg/kg): 6.01 ± 0.64 :g/ml
- Apoptotic fraction (MAT-LyLu prostate tumor; [11]): 1.5 ± 0.9%
- Cell density (MAT-LyLu prostate tumor; [11]): 120 ± 4.35
- Tumor conc. at specified time (MAT-LyLu prostate tumor; [11]): 2.76 ± 0.57 :g/g
- Apoptotic fraction (MAT-LyLu prostate tumor; [12]): 11.2 ± 2.3^c %
- Cell density (MAT-LyLu prostate tumor; [12]): 85 ± 4.52
- Tumor conc. at specified time (MAT-LyLu prostate tumor; [12]): <0.35 at :g/g
- Apoptotic fraction (MAT-LyLu prostate tumor; [13]): 3.5 ± 1.5%
- Cell density (MAT-LyLu prostate tumor; [13]): 112 ± 6.08
- Plasma conc. at end of Tx (MAT-LyLu prostate tumor; [13]): 1.31 ± 0.12 :g/ml
- Tumor conc. at specified time (MAT-LyLu prostate tumor; Group 3: 0.83 mg/kg/hr x 6 hr at 0 hr, total 5 mg/kg, at 6 hr): 2.26 ± 0.13 :g/g
- Apoptotic fraction (MAT-LyLu prostate tumor; [14]): 5.8 ± 2.2%
- Cell density (MAT-LyLu prostate tumor; [14]): 108 ± 5.78
- Plasma conc. at end of Tx (MAT-LyLu prostate tumor; [14]): 2.98 ± 0.60 :g/ml
- Tumor conc. at specified time (MAT-LyLu prostate tumor; Group 4: 5 mg/kg/hr x 1 hr at 0 hr + 0.83 x 6 hr at 1.2 hr, total 10 mg/kg, at 7.2 hr): 3.24 ± 0.31 :g/g
- Apoptotic fraction (MAT-LyLu prostate tumor; [15]): 6.5 ± 1.6%
- Cell density (MAT-LyLu prostate tumor; [15]): 115 ± 5.18
- Plasma conc. at end of Tx (MAT-LyLu prostate tumor; [15]): 1.50 ± 0.06 :g/ml
- Tumor conc. at specified time (MAT-LyLu prostate tumor; Group 5: 0.83 mg/kg/hr x 12 hr, total 10 mg/kg, at 12 hr): 2.95 ± 0.34 :g/g
- higher cell (density) in Group 5 compared to Group 1 (MAT-LyLu prostate tumor; end of treatment): 25%
- higher cell density in Group 4 compared to Group 1 (MAT-LyLu prostate tumor; end of treatment): 30%
- lower apoptosis in Group 4 compared to Group 1 (MAT-LyLu prostate tumor; end of treatment): 60%
- lower apoptosis in Group 5 compared to Group 1 (MAT-LyLu prostate tumor; end of treatment): 35%
- lower drug concentration in Group 4 compared to Group 1 (MAT-LyLu prostate tumor; end of treatment): 18%
- lower drug concentration in Group 5 at 12 hr than Group 1 at 30 hr (MAT-LyLu prostate tumor; rat, in vivo): 25%
- difference between plasma concentrations at end of 6 and 12 hr infusions (MAT-LyLu prostate tumor; rats): 13%
- time at which even distribution in tumor was attained (FaDu tumor histocultures; 10 nM): 72 h
- Paclitaxel in tumor (FaDu tumor histocultures; 50 nM x 24 hr, 24 hr after initiation of treatment): 3.11 ± 0.31 :M
- Paclitaxel in tumor (FaDu tumor histocultures; 50 nM x 24 hr, 36 hr after initiation of treatment): 2.01 ± 0.32 :M
- time at which even distribution in tumor was attained (FaDu tumor histocultures; 50 nM): 24 h
- time of even distribution throughout the tumor (FaDu tumor histocultures; 50 nM, without pretreatment): ≤ 72 h
- Paclitaxel in tumor (FaDu tumor histocultures; 600 nM x 1 hr, 23 hr later 50 nM x 12 hr, 24 hr after initiation of treatment): 2.68 ± 0.31 :M
- Paclitaxel in tumor (FaDu tumor histocultures; 600 nM x 1 hr, 23 hr later 50 nM x 12 hr, 36 hr after initiation of treatment): 4.33 ± 0.29 :M
- paclitaxel penetration (FaDu tumor histocultures; control group, 50 nM continuously for 24 hr, during the next 12 hr): less than 20 cell layers
- higher drug accumulation in pretreatment group vs control group (FaDu tumor histocultures; end of drug treatment (36 hr vs 24 hr), equal CxT 1,200 nM·hr): 40%
- time of even drug distribution throughout histocultures (FaDu tumor histocultures; pretreatment group, 600 nM 1 hr, 23 hr drug-free, 50 nM 12 hr): 36 h
- Mass balance (FaDu xenograft tumors [4]; initial Cmedium 12 nM): 92.5 ± 5.1%
- Steady state Cmedium (FaDu xenograft tumors [4]; initial Cmedium 12 nM): 9.09 ± 0.27 nM
- Mass balance (FaDu xenograft tumors [4]; initial Cmedium 120 nM): 86.5 ± 2.8%
- Steady state Cmedium (FaDu xenograft tumors [4]; initial Cmedium 120 nM): 89.7 ± 13.3 nM
- Mass balance (FaDu xenograft tumors [4]; initial Cmedium 1,200 nM): 89.4 ± 5.7%
- Steady state Cmedium (FaDu xenograft tumors [4]; initial Cmedium 1,200 nM): 887 ± 131 nM
- Mass balance (FaDu xenograft tumors [4]; initial Cmedium 12,000 nM): 90.2 ± 5.4%
- Steady state Cmedium (FaDu xenograft tumors [4]; initial Cmedium 12,000 nM): 8,910 ± 267 nM
- time at which drug concentration declined to pseudo steady state level [5]: 48 h
